In US10898473B2, “Combinations to treat cancer” (EVOL SCIENCE LLC, priority 2016, dated 2021):

Columns and labels:
BxPC3M1 cells = assay: Colony formation assay; assay type: cell-based
Experimental: (§1) For colony formation assays, 400 cells per well were seeded into 24-well plates on day 0. Cells were treated with DMSO or gemcitabine at various doses on day 1 for 24 hours. Gemcitabine was washed out on day 2, vemurafenib, dabrafenib, and methotrexate was added. On day 4, drugs added on day 2 was washed out. Cells were allowed to grow for a subsequent 7 days before being fixed (10% methanol+10% acetic acid) and stained with crystal violet (0.4% in 20% ethanol) for quantitation as previously described (Bhattacharjee et al., 2014).

NCI-H2122 cells = assay: Colony formation assay; assay type: cell-based
Experimental: as §1

SK-MEL-28VR1 cells [1] = assay: Colony formation assay; assay type: cell-based
Experimental: as §1

SK-MEL-28 cells [2] = assay: Colony formation assay; assay type: cell-based
Experimental: as §1

[3] = system: pancreatic cancer patient-derived and ATCC established cell lines; assay: 3D-spheroidal growth assay (CTG3D cell viability); assay type: cell-based; conditions: gemcitabine day 2, washed out, B-raf inhibitor day 3, viability day 5; FIG. 15
Experimental: FIG. 15 illustrates gemcitabine sensitized pancreatic cancer patient-derived and ATCC established cell lines to vemurafenib or dabrafenib in 3D-spheroidal growth assays: 20,000 cells plated (Corning 4515 spheroid plates) on day 0, Gemcitabine added on day 2 (all spheroids at least 500 μm in diameter), gemcitabine washed out and B-raf inhibit was added on day 3, CTG3D cell viability assays on day 5 (n=2).
ATCC established cell lines to vemurafenib or dabrafenib in 3D-spheroidal growth assays. 20,000 cells were plated to grow in a 3D-spheroidal growth assays. (Corning 4515 spheroid plates). Two days later when all spheroids were at least 500 μm in diameter, gemcitabine was added 2 days after plating. Gemcitabine was washed out the following day and the B-raf inhibitor was added on day 3 (3 days post-plating). CTG3D cell viability assays were performed 5-days post plating (i.e, on day 5, n=2). […] This was a surprising and unexpected effect that these cells could be killed with this combination.

[4] = system: BxPC3M1, BxPC3, Panc1, and MiaPaca2; assay: Cell proliferation assay; assay type: cell-based; conditions: vemurafenib 10 μM; all 4 cell lines (WT BRAF)
Experimental: FIGS. 9A-9H illustrate vemurafenib induced cell proliferation and serine synthesis in pancreatic cancer cell lines. FIG. 9A: Cell proliferation assay of BxPC3 cells treated with vemurafenib (10 μM). 100000 cells plated on day 0. FIG. 9B: Cell proliferation assay of BxPC3M1 cells treated with vemurafenib (10 μM). 100000 cells plated on day 0. FIG. 9C: Cell proliferation assay of Panc1 cells treated with vemurafenib (10 μM). 100000 cells plated on day 0. FIG. 9D: Cell proliferation assay of MiaPaca2 cells treated with vemurafenib (10 μM). 100000 cells plated on day 0. FIG. 9E: Mass spectrometry: PHGDH protein expression in pancreatic cancer cells treated with DMSO or vemurafenib (10 μM) (n=3). FIG. 9F: Mass spectrometry: PSAT1 protein expression in pancreatic cancer cells treated with DMSO or vemurafenib (10 μM) (n=3). FIG. 9G: Mass spectrometry: PSPH protein expression in pancreatic cancer cells treated with DMSO or vemurafenib (10 μM) (n=3). FIG. 9H: Mass spectrometry: SARS protein expression in pancreatic cancer cells treated with DMSO or vemurafenib (10 μM) (n=3).
Next, we tested the effect of vemurafenib treatment on pancreatic cancer cell proliferation. All 4 of the cell lines (BxPC3M1, BxPC3, Panc1, and MiaPaca2) tested express WT BRAF. […] As expected, PHGDH, PSAT1, PSPH, and SARS protein abundance increased in all 4 cell lines tested (FIGS. 9E, 9F, 9G, and 9H). […]

SK-MEL-28VR1 cells [5] = assay: Mass spectrometry protein abundance
Experimental: (§2) 5 μL of sample were loaded onto a C18 trap column (PepMap100; 300-μm i.d.×5 mm, 5-μm particle size, 100 Å; Thermo Fisher Scientific) at a flow rate of 10 μL min^−1. […] The runs were analyzed using Progenesis-QI for Proteomics (Nonlinear dynamics). The chromatograms were aligned and the MS/MS data was extracted for peptide identification using Mascot (Matrix Science, London, UK; version 2.5.1). Mascot was set up to search the cRAP database, the custom database including the QMC peptide sequence and SwissProt database (selected for Homo sapiens) assuming the digestion enzyme trypsin. Mascot was searched with a fragment ion mass tolerance of 0.06 Da and a parent ion tolerance of 15 PPM. Deamidated of asparagine and glutamine, oxidation of methionine, acetyl of lysine, propionyl of lysine and carbamidomethylation of cysteine were specified in Mascot as variable modifications. The peptides identified using a FDR<1% were extracted and imported back into Progenesis for assignment of the peaks. Only proteins with at least 2 unique peptides and a Mascot score of 20 were used for further analysis. The peptide and protein quantification used a synthetic control peptide for normalization across the samples.
(§3) All proteomic trend plots were constructed using the Evol Science Software suite (ESSv1.0). […]

[6] = system: SK-MEL-28VR1 vs SK-MEL-28 cells; conditions: protein abundance with vemurafenib treatment, SK-MEL-28VR1 compared to parental SK-MEL-28
[7] = system: PHGDH in SK-MEL-28VR1 cells; assay: Western blot of PHGDH protein expression; assay type: cell-based; conditions: following vemurafenib treatment; FIG. 5B
Experimental: Cells were harvested, washed in PBS and lysed in NP40 lysis buffer (1% NP40/PBS/10% glycerol) with protease and phosphatase inhibitors. Protein concentrations were determined with Total-Protein-Assay-kit (ITSI Biosciences; K-0014-20) and then SDS sample buffer was added to the lysates. 50 ug of boiled lysates was separated by SDS-PAGE and then transferred onto Immobilon P membranes (Millipore; IPVH00010).

[8] = system: BxPC3M1, BxPC3, Panc1, and MiaPaca2; assay type: cell-based, Homo sapiens; conditions: vemurafenib 10 μM vs DMSO; all 4 cell lines
SK-MEL-28 cells [9] = assay: Mass spectrometry protein abundance
Experimental: as §2, §3

In the case of `CC(C)(C)c1nc(-c2cccc(NS(=O)(=O)c3c(F)cccc3F)c2F)c(-c2ccnc(N)n2)s1` [dabrafenib, Dabrafenib], the sensitization to gemcitabine (BxPC3M1 cells; dabrafenib 1 μM + variable doses of gemcitabine, FIG. 11A) is reported as “sensitized” and the sensitization to gemcitabine (NCI-H2122 cells; dabrafenib 1 μM + variable doses of gemcitabine, FIG. 11B) is reported as “sensitized”.
With `Nc1ccn([C@@H]2O[C@H](CO)[C@@H](O)C2(F)F)c(=O)n1` [gemcitabine] the sensitization to vemurafenib (SK-MEL-28VR1 cells [1]; gemcitabine 50 nM + variable doses of vemurafenib, FIG. 7B) was “significantly sensitized”, the sensitization to dabrafenib (SK-MEL-28VR1 cells [1]; gemcitabine 50 nm + variable doses of dabrafenib, FIG. 11C) was “sensitized” and the “sensitization over single vemurafenib treatments” value (SK-MEL-28 cells [2]; gemcitabine 50 nM + variable doses of vemurafenib, FIG. 7A) was “did not sensitize”. For the same compound, the “effect of gemcitabine pre-treatment followed by B-raf inhibitors on the cells” value [3] was “leads to cell death” and the “sensitization to vemurafenib or dabrafenib” value [3] was “sensitized”.
`CN(Cc1cnc2nc(N)nc(N)c2n1)c1ccc(C(=O)N[C@@H](CCC(=O)O)C(=O)O)cc1` [methotrexate] was tested, and the “killing of cells following vemurafenib treatment” value (SK-MEL-28VR1 cells [1]; methotrexate 75 nM + differential doses of vemurafenib, FIG. 6D) was “significantly enhanced”, the “cell death alongside the gemcitabine/vemurafenib combination” value (SK-MEL-28VR1 cells [1]; methotrexate (75 nM) + gemcitabine (50 nM) + vemurafenib, FIG. 7F) was “significantly enhanced” and the “killing by methotrexate/vemurafenib treatments” value (SK-MEL-28 cells [2]; methotrexate 75 nM + differential doses of vemurafenib, FIG. 6C) was “no significant killing”. For the same compound, the “cell death compared to gemcitabine+vemurafenib without methotrexate” value (BxPC3M1 cells; methotrexate (75 nM) + gemcitabine + vemurafenib (1 μM), FIG. 10A) was “increased cell death” and the “cell death compared to gemcitabine+vemurafenib without methotrexate” value (NCI-H2122 cells; methotrexate (75 nM) + gemcitabine + vemurafenib (1 μM), FIG. 10B) was “increased cell death”.
In the case of `CCCS(=O)(=O)Nc1ccc(F)c(C(=O)c2c[nH]c3ncc(-c4ccc(Cl)cc4)cc23)c1F` [vemurafenib, Vemurafenib], the cell proliferation [4] is reported as “increased proliferation”, the “PHGDH, PSAT1, PSPH, SARS and SARS2 abundance” value (SK-MEL-28VR1 cells [5]; cells exposed to vemurafenib vs vehicle, data not shown) is reported as “equal or higher abundances” and the “Cytoplasmic FAM129B abundance increase” value (SK-MEL-28VR1 cells [5]; vemurafenib treatment compared to vehicle treatment, FIG. 5A) is reported as roughly 6 fold. For the same compound, the cell death (SK-MEL-28VR1 cells [1]; vemurafenib 2.5 μM and 5 μM, serine depletion (not with complete media), FIG. 6E) was greater than 50%, the sensitization to gemcitabine (BxPC3M1 cells; variable gemcitabine doses + vemurafenib 1 μM, FIG. 8A) was “significantly sensitized” and the cell death (BxPC3M1 cells; vemurafenib 5 μM, serine depleted media (not with complete media), FIG. 10C) was greater than 50%. The sensitization to gemcitabine (NCI-H2122 cells; vemurafenib 1 μM, FIG. 8C) was “sensitized”, the “Fold differential, ASNS” value [6] was 8 fold and the “Fold differential, CYP51A1” value [6] was 8 fold. The “Fold differential, DUS2” value [6] was 7 fold, the “Fold differential, FAM129B” value [6] was 9 fold and the “Fold differential, KRT19” value [6] was 5 fold. The “Fold differential, LARS2” value [6] was 6 fold, the “Fold differential, MPHOSPH6” value [6] was 9 fold and the “Fold differential, MRPL13” value [6] was 2 fold. For the same compound, the “Fold differential, PDLIM7” value [6] was 9 fold, the “Fold differential, PHGDH” value [6] was 2 fold and the “Fold differential, PPP1R7” value [6] was 8 fold. For the same compound, the “Fold differential, PSAT1” value [6] was 8 fold, the “Fold differential, PSPH” value [6] was 5 fold and the “Fold differential, RUVBL1” value [6] was 3 fold. The “Fold differential, S100A11” value [6] was 8 fold, the “Fold differential, SARS” value [6] was 6 fold and the “Fold differential, SARS2” value [6] was 4 fold. The “Fold differential, SBDS” value [6] was 10 fold, the “Fold differential, SPATA20” value [6] was 12 fold and the “Fold differential, TXNDC17” value [6] was 2 fold. The PHGDH levels [7] was “increased”, the “PHGDH, PSAT1, PSPH, and SARS protein abundance” value [8] was “increased” and the FAM129B abundance (SK-MEL-28 cells [9]; in response to vemurafenib treatments, parental cells) was “decreased”. For the same compound, the “PHGDH, PSAT1, PSPH, SARS and SARS2 abundance” value (SK-MEL-28 cells [9]; parental cells exposed to vemurafenib vs vehicle, data not shown) was “opposite trend”.
